Assay results as given in ChEMBL document CHEMBL3853306, “Antidepressant-like effects and mechanisms of flavonoids and related analogues” (Eur J Med Chem, 2016).
Converted amounts (≈) assume the structure as drawn.

How the values were obtained:
[1] = Antidepressant- like activity in mouse assessed as duration of immobility time at 10 mg/kg, ip by forced swimming test (reference value: 141.5 +/- 10.9 secs); format: functional, organism-based
[2] = Antidepressant- like activity in mouse assessed as duration of immobility time at 10 mg/kg, ip by tail suspension test (reference value: 130.5 +/- 9.6 secs); format: functional, organism-based
[3] = Antidepressant- like activity in Balb/c mouse assessed as immobility time at 10 mg/kg, ip administered 30 mins prior to testing by forced swimming test (reference value: 123.3 +/- 10.7 secs); format: functional, organism-based
[4] = Antidepressant- like activity in Balb/c mouse assessed as immobility time at 10 mg/kg, ip administered 30 mins prior to testing by tail suspension test (reference value: 130.5 +/- 9.6 secs); format: functional, organism-based
[5] = Antidepressant activity in albino mouse assessed as immobility time at 10 mg/kg, ip administered 30 mins prior to testing by forced swimming test (reference value: 141 +/- 14.2 secs); format: functional, organism-based
[6] = Antidepressant activity in albino mouse assessed as decrease in immobility time at 10 mg/kg, ip administered 30 mins prior to testing by forced swimming test relative to control; format: functional, organism-based; set-up: scale not given: the % may be the effect or the level left
[7] = Antidepressant- like activity in Balb/c mouse assessed as immobility time at 1 mg/kg, ip administered 30 mins prior to testing by forced swimming test (reference value: 123.3 +/- 10.7 secs); format: functional, organism-based
[8] = Antidepressant- like activity in Balb/c mouse assessed as immobility time at 5 mg/kg, ip administered 30 mins prior to testing by forced swimming test (reference value: 123.3 +/- 10.7 secs); format: functional, organism-based
[9] = Antidepressant- like activity in Balb/c mouse assessed as immobility time at 1 mg/kg, ip administered 30 mins prior to testing by tail suspension test (reference value: 130.5 +/- 9.6 secs); format: functional, organism-based
[10] = Antidepressant- like activity in Balb/c mouse assessed as immobility time at 5 mg/kg, ip administered 30 mins prior to testing by tail suspension test (reference value: 130.5 +/- 9.6 secs); format: functional, organism-based
[11] = Inhibition of MAO in mouse brain mitochondrial fraction using kynuramine as substrate assessed as formation of 4-hydroxyquinoline by fluorescence spectrometric method; format: tissue-based
[12] = Antidepressant- like activity in mouse assessed as decrease in immobility time at 30 mg/kg, po by forced swimming test relative to control; format: functional, organism-based; set-up: scale not given: the % may be the effect or the level left
[13] = Antidepressant- like activity in mouse assessed as decrease in immobility time at 30 mg/kg, po by tail suspension test relative to control; format: functional, organism-based; set-up: scale not given: the % may be the effect or the level left
[14] = tested on: Mus musculus; assay: In vivo inhibition of MAOA in ICR mouse brain at 20 mg/kg administered via oral gavage using kynuramine dihydrobromide as substrate preincubated for 15 mins followed by substrate addition measured after 30 mins in presence of MAOB inhibitor deprenyl by fluorescence spectrometric method; format: functional

**Q.** Which results are given for `CNCCC(Oc1ccc(C(F)(F)F)cc1)c1ccccc1` (centres undefined)?
**A.** TIME [1]: 0.0174 h; TIME [2]: 0.0112 h; TIME [3]: 0.0229 h; TIME [4]: 0.021 h; TIME [5]: 0.0195 h

**Q.** Which TIME [5] does the source give for `COc1cc(C2CC(=O)c3ccc(O)cc3O2)ccc1O` (centres undefined) here?
**A.** 0.0256 h

**Q.** And the Activity [6]?
**A.** 34.6%

**Q.** For `CC(C)=CCOc1ccc(C(=O)/C=C/c2ccc3ccccc3c2)c(O)c1`, which TIME [7] is on record?
**A.** 0.0254 h

**Q.** And the TIME [8]?
**A.** 0.022 h

**Q.** And the TIME [3]?
**A.** 0.0257 h

**Q.** And the TIME [9]?
**A.** 0.0295 h

**Q.** And the TIME [10]?
**A.** 0.0217 h

**Q.** What about the TIME [4] of the same compound?
**A.** 0.0241 h

**Q.** For `CC(C)=CCOc1ccc(C(=O)/C=C/c2c(Cl)cccc2Cl)c(O)c1`, which TIME [1] is on record?
**A.** 0.0116 h

**Q.** What about the TIME [2] of the same compound?
**A.** 0.0135 h

**Q.** With `O=C1c2c(O)cc(O)cc2O[C@H](c2ccc(O)c(O)c2)[C@H]1O` [(+)-TAXIFOLIN] as the compound, how does the IC50 [11] read?
**A.** 153.1 µg/mL (≈ 503 µM)

**Q.** What does the source list for `COc1ccc(/C=C/C(=O)c2ccc(OCC=C(C)C)cc2O)cc1`?
**A.** TIME [1]: 0.0112 h; TIME [2]: 0.0141 h; Activity [12]: 71.4%; Activity [13]: 61%

**Q.** Which IC50 [11] does the source give for `O=c1cc(-c2ccc(O)c(O)c2)oc2cc(O[C@@H]3O[C@H](CO)[C@@H](O)[C@H](O)[C@H]3O)cc(O)c12` [GALUTEOLIN] here?
**A.** 118.6 µg/mL (≈ 265 µM)

**Q.** With `O=c1c(O)c(-c2ccc(O)c(O)c2)oc2cc(O)ccc12` [FISETIN] as the compound, how does the inhibition in vivo at 20 mg/kg [14] read?
**A.** 14.7%

**Q.** For `O=C1c2c(O)cc(O)cc2O[C@H](c2ccc(O)cc2)[C@H]1O` [DIHYDROKAEMPFEROL], which IC50 [11] is on record?
**A.** 154.7 µg/mL (≈ 537 µM)

**Q.** Which Activity [6] does the source give for `O=C1CC(c2ccc(Cl)cc2Cl)Oc2cc(O)ccc21` (centres undefined) here?
**A.** 30.4%

**Q.** For `O=C(O)[C@H]1O[C@@H](Oc2cc(O)c3c(=O)cc(-c4ccc(O)cc4)oc3c2)[C@H](O)[C@@H](O)[C@@H]1O`, which IC50 [11] is on record?
**A.** 81.7 µg/mL (≈ 183 µM)

**Q.** Which results are given for `CC(C)=CCOc1ccc(C(=O)/C=C/c2cccc(Br)c2)c(O)c1`?
**A.** TIME [1]: 0.0102 h; TIME [2]: 0.0118 h; Activity [12]: 74.1%; Activity [13]: 67.6%
